This is an account of results in patent publication US20040014671A1, “Preventives or remedies for heart failure” (priority 2000, published 2004).

Data set [1] concerns papillary muscle of guinea-pig. Description: Myocardial contractility (developed tension) in isolated papillary muscle of guinea-pig. To be noted: applied cumulatively 10, 30 and 100 μM; n=5; FIG. 1. The protocol: The direct effect of pralmorelin on myocardial contractility was evaluated using the isolated cardiac muscle of guinea-pigs according to the standard method for evaluating myocardial contractility.
Male Hartley guinea-pigs (body weight, 301-350 g; Japan SLC) were purchased. The animals were accommodated to an environment at a temperature of 23±2° C. and a humidity of 55±15% under 12-hr light/dark cycles while they were allowed to eat and drink water ad libitum until they weighed 360-480 g. Each test substance was tested on a group of five animals.
The test substances were pralmorelin dihydrochloride (KP-102), representatives of growth hormone secretagogues such as hexarelin, ghrelin and ibutamorelin methanesulfonate (the last being hereunder referred to as MK-0677) (which were prepared by the method described in JP 6-263737 A (kokai)), as well as a recombinant human growth hormone (Sumitomo Pharmaceutical) and amrinone (Sigma) which is a known therapeutic of acute heart failure. KP-102, hexarelin and MK-0677 were dissolved in distilled water. Ghrelin was dissolved in physiological saline. Amrinone was first dissolved in dimethyl sulfoxide and then diluted with physiological saline. The growth hormone was dissolved in a dedicated solubilizer (0.3 w/v % metacresol and 3.9 w/v % D-mannitol). None of the test substance solutions should be added in an amount exceeding 1 w/v %. All reagents other than the test substances were guaranteed products of Nacalai Tesque.
The guinea-pigs were stunned with a blow to the back of their head; thereafter, the carotid artery was incised and the animals were exsanguinated to death. The chest was opened, the blood vessels in the upper part of the heart were cut and the heart was removed. The heart was immediately transferred into a Krebs-Henseleit (K-H) nutrient solution (NaCl, 118.0 mM; KCl, 4.7 mM; CaCl2. 2H2O, 1.0 mM; KH2PO4, 1.2 mM; MgSO4.7H2O, 1.2 mM; NaHCO3, 25.0 mM; glucose, 11.0 mM) that had been fully aerated with 95% O2-5% CO2. The heart was fixed on a rubber-lined Petri dish with needles such that its front face was seen. The ventricular wall of the upper right ventricle (toward the atrium) was excised transversely along the atrium, then excised longitudinally along the interventricular septum so that the ventricular wall was opened to expose the right ventricular papillary muscle. Subsequently, the entire surface of the left ventricle was cut open from the aorta (down) to the apex and the anterior wall of the left ventricle was opened wide, to both right and left, and fixed to expose the papillary muscle of the left ventricle. The tricupsid or mitral valve was cut off from the ventricle and the papillary muscle was cut off at the base to prepare a specimen of papillary muscle. The base of the specimen was fixed to field stimulating electrodes in an organ bath filled with 15 mL of the nutrient solution. The tendinous cord adhering to the valve was tied up with a thread and connected to an FD pickup (TB-612T, Nihon Kohden). A resting tension of 0.5 g was loaded and the papillary muscle was driven with an electric stimulator (SEN-3201, Nihon Kohden) at a frequency of 1 Hz by pulses of 20-ms duration and at a voltage intensity about 1.2 times the threshold. After an equilibration period of about 1 hr, KP-102, hexarelin and amrinone were each applied cumulatively up to amounts of 10, 30 and 100 μM. After examination of the changes in inotropic action due to the application of the test substances, 12.5 mM of CaCl2 was added and the maximum tension that was developed by each specimen was obtained. The developed tension was recorded with a multi-purpose preamplifier (RMP-6008, Nihon Kohden) and a recorder (WT-647G, Nihon Kohden).
Each result was expressed by mean ± standard error. […]

Data set [2] deals with anesthetized open-chest rabbits. Kind of data set: Cardiac function of anesthetized open-chest rabbit after intravenous administration. In kind it is in vivo. As to the method:
The effects of pralmorelin on cardiac function were evaluated by measuring various parameters [blood pressure, heart rate, systolic left ventricular pressure (LVPsys), and maximal positive dP/dt (+dP/dtmax) obtained by differentiating the waveform of left ventricular pressure (LVP)]. The value of the maximal positive dP/dt for the left ventricular pressure (+dP/dtmax) is particularly important to determine if the cardiotonic action is sufficient to treat acute heart failure.
Pralmorelin dihydrochloride (hereunder referred to as KP-102) (prepared by the method described in WO 9304081) was dissolved in distilled water for injection to prepare a 1.5 mg/mL solution.
Male NZW-strain rabbits (Kitayama Labes) weighing about 2 kg were used in the experiment. After arrival, the animals were allowed to eat a solid meal (Labo R Stock, Oriental Yeast Co., Ltd.) and drink water in a room at a temperature of 20±2° C. and at a humidity of 55±15% under 12-hr light/ dark cycles (from 7:00 to 19:00); the animals were kept under these conditions for at least 6 days before use.
Rabbits were anesthetized by administering 30 mg/kg of sodium pentobarbital into the auricular vein at a slow speed with attention to their breathing. The animals were then fixed in supine position and an endotracheal cannula was inserted. Under artificial respiration (tidal volume, 25 mL/breath; ventilation frequency, 45 breaths/min: SN-480-7 of Shinano Seisakusyo), the chest of each animal was opened by midline incision and the pericardium was incised to expose the heart. The left ventricular pressure (LVP) was measured with a pressure transducer (TP-300T, Nihon Kohden) and a pressure amplifier (AG-610G, Nihon Kohden) as a cannula with syringe was inserted from the cardiac apex into the left ventricle. The waveform of LVP was differentiated with a differentiator unit (ED-601, Nihon Kohden) to determine the maximal positive dP/dt(+dP/dtmax), which was used as an index for cardiac contractility. Blood pressure was measured with a pressure amplifier (AP-610G, Nihon Kohden) via a pressure transducer (TP-300T, Nihon Kohden) connected to a cannula inserted into the left femoral artery. Heart rate was measured with a cardiotachometer (AT-601G, Nihon Kohden) that was driven by counting the pulse waves of LVP. The parameters mentioned above were recorded on a recorder (TA-11, Gould). A cannula was inserted into the left femoral vein so as to assist in the administration of the test substance. The rectum temperature of each animal was controlled at 39° C. with a body temperature controller (TK-43, Asahi Denshi). The anesthetic was added as required but additional anesthetization should be avoided during the measurements.
After each parameter stabilized, distilled water (0.2 mL/kg) was administered over one minute with an infusion pump (FP-W-100, Toyo Sangyo K.K.) and observations were made for 5 minutes after the administration to see whether the vehicle would have no effect. About 5 minutes after the administration of distilled water, the test substance was administered with an infusion pump in a volume of 0.2 mL/kg over one minute according to the grouping method specified above. Each hemodynamic parameter was measured both before administration and 1, 3, 5, 10, 15, 20 and 25 minutes after administration and the percent changes from the basal values were calculated. In some animals, measurement was conducted until 40 minutes after the administration of the test substance.
The results were each expressed by mean ± standard deviation. Any difference between groups was tested by repeated measures ANOVA (analysis of variance); The significance level was set at 5%.

[3] abbreviates: 300 μg/kg intravenously over one minute, n=4.

Where a SMILES comes first, the peptide text is derived from it. [ ]: non-standard residue; d: D form. d2Nal = N[C@H](Cc1ccc2ccccc2c1)C(=O)O

Turning to `C[C@H](NC(=O)[C@@H](Cc1ccc2ccccc2c1)NC(=O)[C@@H](C)N)C(=O)N[C@@H](Cc1c[nH]c2ccccc12)C(=O)N[C@H](Cc1ccccc1)C(=O)N[C@@H](CCCCN)C(N)=O` [KP-102, D-alanyl-3-(naphthalen-2-yl)-D-alanyl-L-alanyl-L-tryptophyl-D-phenylalanyl-L-lysinamide] (H-[dA][d2Nal]AW[dF]K-NH2), in data set [1], the “tension development (positive inotropic action) vs baseline” value is “significant effect over the baseline value”. For the same compound, in data set [2] (300 μg/kg intravenously), the “onset of cardiotonic action (LVPsys, +dP/dtmax) after administration” value is reported as “beginning one minute after the administration”; the “overall effect on heart rate” value is on record as “little affected”; the “time of peak of cardiotonic action after administration” value was in the range of 5 to 10 min; the “time until blood pressure baseline value practically restored” value was ~25 min. In data set [2] (setting [3]), the “maximum increase in +dP/dtmax, of the baseline value” was 22% and the “maximum increase in LVPsys, of the baseline value” came to 13%. Further, the “heart rate drop from baseline” value in data set [2] (300 μg/kg intravenously, 3 minutes after administration) worked out at 2%. Moreover, the “heart rate increase from baseline” value in data set [2] (300 μg/kg intravenously, 15 minutes after administration) came out at 1%. For the same compound, in data set [2] (300 μg/kg intravenously, 25 minutes after administration), the “heart rate increase from baseline” value is 2%. In addition, the “time until baseline values (LVPsys, +dP/dtmax) restored” value in data set [2] (300 μg/kg intravenously, one case with extended monitoring) was ≤ 40 min. In addition, the “mean blood pressure change vs control group” value in data set [2] (300 μg/kg intravenously, p<0.05) is recorded as “significant rise of blood pressure”.
